# Laboratory results reported in US20110144376A1, “DERMATOLOGICAL AGENT” (SHOWA DENKO K.K., priority 2008, published 2011).
# How the values were obtained:
# C3H mice = assay: Accelerating effects for mouse body hair growth; type: in vivo; conditions: male C3H/HeN mice, shaved dorsal region, 0.1 ml of a 50 μmol/g ointment once a day, Day 18, vs coating stimulation only, Scheffe, significance level 5%, n=6 (FIG. 3)
# Experimental: Male C3H/HeN that were seven weeks old in a telogen hair cycle were used.
# The dorsal region of the mice was shaved with an electrical hair clipper (0.05 mm blades) and an electrical shaver. From the next day, 0.1 ml of a 50 μmol/g ointment of the compound 4 or 5 was coated on the shaved regions once a day using a bacteria spreader. The controls were given only coating stimulation with a bacteria spreader.
# The dorsal region of the mice on Day 18 after the initiation of coating was photographed. The proportion of the area of the region where hair had regrown relative to the total area of the shaved region was calculated by image analysis. The value obtained thereby indicated the hair regrowth rate (%). Significant difference was tested by a post-hoc test (Scheffe method). The significance level was 5%.
# In this experiment, n=6 for the test substances and n=7 for the controls.
# [1] = tested on: three dimensional human skin model MEL-300 (normal human skin keratinocytes containing normal human epidermal melanocytes); assay: Inhibitory effects for melanocyte dendrite formation (three dimensional human skin model); type: cell-based; conditions: 0.1 ml of a 30 mmol/l solution, MEL-300 cups, 7 days of incubation, vs 0.2% ethanol control, Scheffe, significance level 5%, n=3 (FIG. 1)
# Experimental: (§1) Melanin formation inhibitory effects of the compounds 4 and 5 shown in Table 1 were evaluated using three dimensional human skin model MEL-300 (normal human skin keratinocytes containing normal human epidermal melanocytes). The MEL-300 skin model cups were transferred to a 6-well plate, each well containing 0.9 ml of EPI-100-LLMM maintenance medium, and were pre-incubated at 37° C. and 5% CO2 for 1 hour.
# (§2) The maintenance medium was suction removed, and 5 ml of the maintenance medium was newly added. Thereafter, 0.1 ml of a 30 mmol/l solution of the compound 4 or 5 was added to the MEL-300 skin model cups, and the resultant were incubated. The controls were given 0.1 ml of a 0.2% ethanol solution.
# The maintenance medium and the test substance were replaced every two days, and the incubation was performed for 7 days. After the 7 days of incubation, the cells inside the three dimensional human skin model cup were photographed, and the proportion (%) of the area of melanocytes was calculated by image analysis. Significant difference was tested by a post-hoc test (Scheffe method). The significance level was 5%. […] In this experiment, n=3.
# [2] = tested on: three dimensional human skin model MEL-300 (normal human skin keratinocytes containing normal human epidermal melanocytes); assay: Melanin synthesis inhibitory test (three dimensional human skin model); type: cell-based; conditions: 0.1 ml of a 30 mmol/l solution, MEL-300 cups, 14 days of incubation, vs 0.2% ethanol control, Scheffe, significance level 1%, n=3 (FIG. 2)
# Experimental: as §1, with “4 or” for “4 and”
# as §2, with “solution. The positive controls were given 0.1 ml of a 30 mmol/l kojic acid solution.” for “solution.”
# The maintenance medium and the test substance were replaced every two days, and the incubation was performed for 14 days. […]
# After the reaction, the reaction liquid was sufficiently stirred and the incubated skin piece was completely crushed. […] The supernatant was analyzed to determine the absorbance at 405 nm. A linear calibration curve was prepared based on the absorbances of melanin solutions of known concentrations that had been treated similarly. The melanin contents in the incubated skin pieces were thus determined. […]
# [3] = background art statement; cited from earlier work
SMILES,hair regrowth rate (%) (C3H mice),formation of melanocyte dendrites (proportion (%) of the area of melanocytes by image analysis) [1],"melanin production (melanin contents in the incubated skin pieces, absorbance at 405 nm) [2]",solubility in water [3]
"COc1c(OC(=O)CN(C)C)c(C)c(CC=C(C)CCC=C(C)CCC=C(C)CCC=C(C)CCC=C(C)CCC=C(C)CCC=C(C)CCC=C(C)CCC=C(C)CCC=C(C)C)c(OC(=O)CN(C)C)c1OC.Cl [Compound 4, 2,3-dimethoxy-5-methyl-6-decaisoprenylbenzene 1,4-bis-N,N-dimethyl glycinate hydrochloride]",significantly increased,significantly inhibited,significantly decreased,
"COC1=C(OC)C(=O)C(CC=C(C)CCC=C(C)CCC=C(C)CCC=C(C)CCC=C(C)CCC=C(C)CCC=C(C)CCC=C(C)CCC=C(C)CCC=C(C)C)=C(C)C1=O [ubiquinone-10, 2,3-dimethoxy-5-methyl-6-decaisoprenyl-1,4-benzoquinone]",,,,completely insoluble in water
"COc1c(O)c(CC=C(C)CCC=C(C)CCC=C(C)CCC=C(C)CCC=C(C)CCC=C(C)CCC=C(C)CCC=C(C)CCC=C(C)CCC=C(C)C)c(C)c(OC(=O)CN(C)C)c1OC.Cl [Compound 5, 2,3-dimethoxy-5-methyl-6-decaisoprenyl-1-hydroxybenzene 4-N,N-dimethyl glycinate hydrochloride]",significantly increased,significantly inhibited,significantly decreased,
